# Reference: patent publication US6562862B1, “Methods of inhibiting physiological conditions associated with an excess of neuropeptide Y” (Eli Lilly and Company, priority 1994, dated 2003)
# Biological target: T1, Y1 (Homo sapiens, UniProt P25929)
# T1 construct: In this assay the cell line SK-N-MC was employed; endogenous in cells; host or cells: SK-N-MC cells (homogenate of scraped, pelleted cells), received from Sloane-Kettering Memorial Hospital
# T1 sequence (P25929 1-384): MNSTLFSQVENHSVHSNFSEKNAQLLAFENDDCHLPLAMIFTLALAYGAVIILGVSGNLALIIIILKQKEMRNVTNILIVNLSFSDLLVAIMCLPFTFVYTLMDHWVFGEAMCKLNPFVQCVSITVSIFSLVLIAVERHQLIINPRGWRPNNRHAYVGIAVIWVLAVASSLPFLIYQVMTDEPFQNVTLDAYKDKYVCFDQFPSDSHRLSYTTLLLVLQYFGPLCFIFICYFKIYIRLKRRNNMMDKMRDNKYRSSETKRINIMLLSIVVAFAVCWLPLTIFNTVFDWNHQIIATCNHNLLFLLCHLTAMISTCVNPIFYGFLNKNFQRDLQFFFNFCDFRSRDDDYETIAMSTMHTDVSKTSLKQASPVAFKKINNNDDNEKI
# Test: Neuropeptide Y Binding Assay (125I-peptide YY, SK-N-MC cell homogenate)
# Details: displacement of 0.1 nM 125I-peptide YY, SK-N-MC cells, about two hours at room temperature
# Method: The biological activity of the compounds of the present invention was evaluated employing an initial screening assay which rapidly and accurately measured the binding of the tested compound to known neuropeptide Y receptor sites. Assays useful for evaluating neuropeptide Y receptor antagonists are well known in the art. See, e.g., U.S. Pat. No. 5,284,839, issued Feb. 8, 1994, which is herein incorporated by reference. See also, M. W. Walker, et al., Journal of Neurosciences, 8:2438-2446 (1988).
# Neuropeptide Y Binding Assay
# The ability of the compounds of the instant invention were assessed as to their ability to bind to neuropeptide Y using a protocol essentially as described in M. W. Walker, et al., supra. In this assay the cell line SK-N-MC was employed. This cell line was received from Sloane-Kettering Memorial Hospital, New York. These cells were cultured in T-150 flasks using Dulbecco's Minimal Essential Media (DMEM) supplemented with 5% fetal calf serum. The cells were manually removed from the flasks by scraping, pelleted, and stored at −70° C.
# The pellets were resuspended using a glass homogenizer in 25 mM HEPES (pH 7.4) buffer containing 2.5 mM calcium chloride, 1 mM magnesium chloride, and 2 mg/L bacitracin. Incubations were performed in a final volume of 200 μl containing 0.1 nM ^125I-peptide YY (2200 Ci/mmol) and 0.2-0.4 mg protein for about two hours at room temperature.
# Nonspecific binding was defined as the amount of radioactivity remaining bound to the tissue after incubating in the presence of 1 μM neuropeptide Y. In some experiments various concentrations of compounds were included in the incubation mixture.
# Incubations were terminated by rapid filtration through glass fiber filters which had been presoaked in 0.3% polyethyleneimine using a 96-well harvester. The filters were washed with 5 ml of 50 mM Tris (pH 7.4) at 4° C. and rapidly dried at 60° C. The filters were then treated with melt-on scintillation sheets and the radioactivity retained on the filters were counted. The results were analyzed using various software packages. Protein concentrations were measured using standard coumassie protein assay reagents using bovine serum albumin as standards.
row,IC50 [µM],Structure (SMILES)
1,~10,O=C(c1ccc(OCCN2CCCC2)cc1)c1c(-c2ccc(O)cc2)sc2cc(O)ccc12
2,~12,"COc1ccc2c(C(=O)c3ccc(OCCN4CCCCC4)cc3)c(-c3ccc(O)cc3)sc2c1 [R1=CH3, R2=1-piperidine, R3=H]"
3,~20,"O=C(c1ccc(OCCN2CCCCCC2)cc1)c1c(-c2ccc(O)cc2)sc2cc(O)ccc12 [R1=H, R2=1-hexamethylenimino, R3=H]"
4,~17,"O=C(c1ccc(OCCN2CCCC2)cc1)c1c(-c2ccc(O)cc2)sc2cc(O)ccc12 [R1=H, R2=1-pyrrolidine, R3=H]"
